Series [1] deals with Staphylococcus aureus X1.1. Description: agar-dilution MIC. In kind it is cell-based. Particulars: two values = two experiments, 2 median of five, 19 median of three experiments.
Method: (§1) In Table VII activity is measured by the minimal inhibitory concentration (MIC), i.e. the lowest concentration of compound at which growth of the microorganism is inhibited by the test compound.
Series [2] deals with Staphylococcus aureus V41. Briefly: agar-dilution MIC. Format: cell-based. The settings on record: Staphylococcus aureus V41, penicillin-resistant strain; two values = two experiments; 2 median of five, 19 median of three.
Method: as §1
For series [3], the system named is Staphylococcus aureus X400. Briefly: agar-dilution MIC. Format: cell-based. The settings on record: Staphylococcus aureus X400, methicillin-resistant strain; two values = two experiments; 2 median of five, 19 median of three.
Method: as §1
The subject of series [4] is Staphylococcus epidermidis EPI1. In kind it is cell-based. The settings on record: two values = two experiments, 2 median of five, 19 median of three.
Series [5] relates to Staphylococcus epidermidis EPI2. Briefly: agar-dilution MIC. Particulars: two values = two experiments, 2 median of five, 19 median of three. Format: cell-based.
For series [6], the system named is Streptococcus pyogenes C203. Briefly: agar-dilution MIC. The settings on record: two values = two experiments, 2 median of five, 19 median of three. In kind it is cell-based.
Series [7] relates to Streptococcus pneumoniae Park I. Format: cell-based. The settings on record: two values = two experiments, 2 median of five, 19 median of three.
Method: as §1
Series [8] has as its system Streptococcus Group D X66. Briefly: agar-dilution MIC. In kind it is cell-based. The settings on record: two values = two experiments, 2 median of five, 19 median of three.
Method: as §1
For series [9], the system named is Streptococcus Group D 9960. Description: agar-dilution MIC. Particulars: two values = two experiments, 2 median of five, 19 median of three. In kind it is cell-based.
Method: as §1
A short description of the next series: toxicity test, LD50. Particulars: mouse, in vivo, iv; administered intravenously; read-out: LD50 (mg/kg) in Mice.
Another series concerns Staphylococcus aureus. Description: in vivo experimental bacterial infection, ED50. Particulars: mice, two doses subcutaneously; two values = two experiments.
The test system of the next series is Streptococcus pyogenes. Description: in vivo experimental bacterial infection, ED50. Particulars: mice; for ED50 Values Streptococcus pyogenes Oral: two doses orally; for ED50 Values Streptococcus pyogenes Subcutaneous: two doses subcutaneously, two values = two experiments.

Values after ≈ are worked out from the molar mass of the structure shown. Values joined by “and” are separate entries in the source; they are usually repeats but may differ in a detail not shown here. Equal entries are not always repeated.

Results on 5 compounds are retold here after patent US4396543A.

For orientation: MIC means the lowest concentration that inhibits growth of the organism. Low values mean a more susceptible organism, high ones a less susceptible organism. Consider `CCCCCCCCCCCC(=O)NCCCCCCCCCCC(=O)N[C@@H](Cc1c[nH]c2ccccc12)C(=O)N[C@H](CC(N)=O)C(=O)N[C@@H](CC(=O)O)C(=O)N[C@@H]1C(=O)NCC(=O)N[C@@H](CCCN)C(=O)N[C@@H](CC(=O)O)C(=O)N[C@H](C)C(=O)N[C@@H](CC(=O)O)C(=O)NCC(=O)N[C@H](CO)C(=O)N[C@@H]([C@H](C)CC(=O)O)C(=O)N[C@@H](CC(=O)c2ccccc2N)C(=O)O[C@@H]1C` [Compound 3], for which the minimal inhibitory concentration (MIC) in series [1] came out at 2 µg/mL (≈ 1.09 µM); in series [2], 2 µg/mL (≈ 1.09 µM); in series [3], 8 µg/mL (≈ 4.37 µM); in series [4] it was 8 µg/mL (≈ 4.37 µM); in series [5], 8 µg/mL (≈ 4.37 µM); in series [6], 2 µg/mL (≈ 1.09 µM). Also, the minimum inhibitory concentration (MIC) in [7] is 0.5 µg/mL (≈ 0.273 µM); in series [8], 8 µg/mL (≈ 4.37 µM); in [9], 8 µg/mL (≈ 4.37 µM). The LD50 in “toxicity test, LD50” worked out at 600 mg/kg. The “ED50 Values Staphylococcus aureus Subcutaneous” value with Staphylococcus aureus is above 18 mg/kg × 2. Also, in the series on Streptococcus pyogenes, the “ED50 Values Streptococcus pyogenes Oral” value is above 200 mg/kg × 2. In addition, in the series with Streptococcus pyogenes, the “ED50 Values Streptococcus pyogenes Subcutaneous” value worked out at 6.2 mg/kg × 2.
In the case of `CCCCCCCCCCCC(=O)Nc1cc(Cl)cc(C(=O)N[C@@H](Cc2c[nH]c3ccccc23)C(=O)N[C@H](CC(N)=O)C(=O)N[C@@H](CC(=O)O)C(=O)N[C@@H]2C(=O)NCC(=O)N[C@@H](CCCN)C(=O)N[C@@H](CC(=O)O)C(=O)N[C@H](C)C(=O)N[C@@H](CC(=O)O)C(=O)NCC(=O)N[C@H](CO)C(=O)N[C@@H]([C@H](C)CC(=O)O)C(=O)N[C@@H](CC(=O)c3ccccc3N)C(=O)O[C@@H]2C)c1Cl` [Compound 7], the MIC in series [1] came to 0.5 µg/mL (≈ 0.272 µM); in series [2] it was 1 µg/mL (≈ 0.544 µM); in [3], 2 µg/mL (≈ 1.09 µM); in [4], 2 µg/mL (≈ 1.09 µM); in series [5], 2 µg/mL (≈ 1.09 µM); in [6] it was 1 µg/mL (≈ 0.544 µM). Further, the minimal inhibitory concentration (MIC) in series [7] worked out at 0.125 µg/mL (≈ 0.0681 µM); in series [8], 2 µg/mL (≈ 1.09 µM); in series [9], 2 µg/mL (≈ 1.09 µM). The LD50 in the series “toxicity test, LD50” is 200 mg/kg. Further, the “ED50 Values Staphylococcus aureus Subcutaneous” value in the series with Staphylococcus aureus is 19 mg/kg × 2. Also, in the series with Streptococcus pyogenes, the “ED50 Values Streptococcus pyogenes Oral” value is listed as above 200 mg/kg × 2. In addition, in the series on Streptococcus pyogenes, the “ED50 Values Streptococcus pyogenes Subcutaneous” value came out at 0.23 mg/kg × 2.
As for `CCCCCCCCCCCC(=O)N[C@@H](Cc1ccccc1)C(=O)N[C@@H](Cc1c[nH]c2ccccc12)C(=O)N[C@H](CC(N)=O)C(=O)N[C@@H](CC(=O)O)C(=O)N[C@@H]1C(=O)NCC(=O)N[C@@H](CCCN)C(=O)N[C@@H](CC(=O)O)C(=O)N[C@H](C)C(=O)N[C@@H](CC(=O)O)C(=O)NCC(=O)N[C@H](CO)C(=O)N[C@@H]([C@H](C)CC(=O)O)C(=O)N[C@@H](CC(=O)c2ccccc2N)C(=O)O[C@@H]1C` [Compound 8], the MIC in series [1] was 0.25 µg/mL (≈ 0.139 µM); in series [2] it was 0.25 µg/mL (≈ 0.139 µM); in series [3], 0.5 µg/mL (≈ 0.278 µM); in [4] it was 1 µg/mL (≈ 0.557 µM); in series [5] it was 1 µg/mL (≈ 0.557 µM); in series [6] it was 0.25 µg/mL (≈ 0.139 µM). Further, the MIC in series [7] amounted to 0.125 µg/mL (≈ 0.0696 µM); in [8], 1 µg/mL (≈ 0.557 µM); in series [9], 0.25 µg/mL (≈ 0.139 µM). In addition, in the series “toxicity test, LD50”, the LD50 was found to be 250 mg/kg. In addition, in the series with Staphylococcus aureus, the “ED50 Values Staphylococcus aureus Subcutaneous” value turned out to be 2.35 mg/kg × 2. Besides, the “ED50 Values Streptococcus pyogenes Oral” value with Streptococcus pyogenes is on record as 150 mg/kg × 2. Further, in the series with Streptococcus pyogenes, the “ED50 Values Streptococcus pyogenes Subcutaneous” value is recorded as 0.32 mg/kg × 2.
With `CCCCCCCCCCCC(=O)NCCCCC(=O)N[C@@H](Cc1c[nH]c2ccccc12)C(=O)N[C@H](CC(N)=O)C(=O)N[C@@H](CC(=O)O)C(=O)N[C@@H]1C(=O)NCC(=O)N[C@@H](CCCN)C(=O)N[C@@H](CC(=O)O)C(=O)N[C@H](C)C(=O)N[C@@H](CC(=O)O)C(=O)NCC(=O)N[C@H](CO)C(=O)N[C@@H]([C@H](C)CC(=O)O)C(=O)N[C@@H](CC(=O)c2ccccc2N)C(=O)O[C@@H]1C` [Compound 2], the MIC in series [1] was determined as 4 µg/mL (≈ 2.29 µM); in [2], 4 µg/mL (≈ 2.29 µM); in series [3], 4 µg/mL (≈ 2.29 µM); in [4], 4 µg/mL (≈ 2.29 µM); in [5] it was 2 µg/mL (≈ 1.14 µM); in series [6], 1 µg/mL (≈ 0.572 µM). Also, the MIC in series [7] worked out at 4 µg/mL (≈ 2.29 µM); in series [8], 32 µg/mL (≈ 18.3 µM); in series [9] it was 8 µg/mL (≈ 4.58 µM). Besides, the LD50 in the series “toxicity test, LD50” was above 600 mg/kg. In the series with Staphylococcus aureus, the “ED50 Values Staphylococcus aureus Subcutaneous” value was 0.65 mg/kg × 2 and 0.93 mg/kg × 2. The “ED50 Values Streptococcus pyogenes Oral” value in the series with Streptococcus pyogenes is reported as 117 mg/kg × 2.
With `CCCCCCC(=O)NCCCCCCCCCCC(=O)N[C@@H](Cc1c[nH]c2ccccc12)C(=O)N[C@H](CC(N)=O)C(=O)N[C@@H](CC(=O)O)C(=O)N[C@@H]1C(=O)NCC(=O)N[C@@H](CCCN)C(=O)N[C@@H](CC(=O)O)C(=O)N[C@H](C)C(=O)N[C@@H](CC(=O)O)C(=O)NCC(=O)N[C@H](CO)C(=O)N[C@@H]([C@H](C)CC(=O)O)C(=O)N[C@@H](CC(=O)c2ccccc2N)C(=O)O[C@@H]1C` [Compound 14], the MIC was found to be 4 µg/mL (≈ 2.27 µM) in series [1]; 4 µg/mL (≈ 2.27 µM) in series [2]; 8 µg/mL (≈ 4.54 µM) in [3]; 8 µg/mL (≈ 4.54 µM) in series [4]; 8 µg/mL (≈ 4.54 µM) in series [5]; 2 µg/mL (≈ 1.14 µM) in series [6]. Besides, the minimal inhibitory concentration (MIC) in series [7] was 8 µg/mL (≈ 4.54 µM); in series [8], above 128 µg/mL; in [9], 64 µg/mL (≈ 36.3 µM). The LD50 in the series “toxicity test, LD50” was above 600 mg/kg. Further, the “ED50 Values Staphylococcus aureus Subcutaneous” value with Staphylococcus aureus is above 18 mg/kg × 2. Also, the “ED50 Values Streptococcus pyogenes Oral” value in the series with Streptococcus pyogenes is above 200 mg/kg × 2. In addition, the “ED50 Values Streptococcus pyogenes Subcutaneous” value in the series with Streptococcus pyogenes is reported as above 9 mg/kg × 2.
